According to patent publication US20160281050A1, “METHODS FOR TREATING A CULTURE OF HAEMATOCOCCUS PLUVIALIS FOR CONTAMINATION USING SALT AND HYDROGEN PEROXIDE” (HELIAE DEVELOPMENT LLC, priority 2015, published 2016):
Where two headings read alike, the source gives them in different places.

Columns and labels:
chytrids [1] = assay: % chytrid infection in flasks, salt treatment (Example 12); format: cell-based
Method: This test was done side by side in flasks (0.1 L) and in reactors located in a greenhouse operating in conditions: reactor volume of 230 L; Daily PAR of 20 mol m^−2 d^−1; pH (not measured); and paddlewheel speed of 21 RPM. […] The flask cultures were mixed by shaking at 140 rpm and received 300-400 μmol/m^2 s of photosynthetically active radiation (PAR) in 12 hour light cycles and constant supply of 2.5% CO2. The motility of the culture was monitored by visual observation under a microscope. […] Nine 230 L reactors were also seeded with culture from bioreactor #2410 on the same day as the flasks and brought to 2 ppt concentration of salt. Once motility of the cells was reduced to <10% (day 3 of culture for flasks and day 2 for 230 L reactors) the level of salt was elevated to a point between 4-18 ppt and compared to the culture in two reactors remaining at 2 ppt salt. Flasks and 230 L reactors were monitored for percentage of cell lysis via visual observation under a microscope, culture dry weight (biomass accumulation in g/L), and percentage of chytrid infection via visual observation under a microscope. Carotenoid production, a proxy for determining astaxanthin, was quantified every other day of culture in the 230 L reactors using the UV method.

chytrids [2] = system: chytrids
From the text: Culture samples of Haematococcus pluvialis (Strain 2) were collected on day 5 of the culture from open raceway bioreactor #2420 operating in conditions: reactor volume of 170,000 L; Daily PAR not measured; pH of 7.3; and paddlewheel speed of 70%). Culture samples were distributed into flasks for culturing, consisting of duplicate untreated controls and duplicate treatments. […] Samples were taken from the flask cultures every few days in order to quantify % lysis, % chytrid infection, and cell dry weight for a duration of about 11 days.

chytrids [3] = system: chytrids; remark: listed apart in the source
From the text: (§1) Culture samples of Haematococcus pluvialis (Strain 2) were collected on the second day of culture from open raceway bioreactor #2410 operating in conditions: reactor volume of 150,000 L; Daily PAR of 9.77 mol m^−2 d^−1; pH of 7.3; and paddlewheel speed of 70%. Culture samples were distributed into flasks for culturing, consisting of duplicate untreated controls and duplicate treatments. […] Samples were taken from the flask cultures daily to quantify % lysis and % chytrid infection and cell dry weight was quantified every other day for a duration of 11 days.

[4] = system: Haematococcus pluvialis (Strain 1) green swimmer cells; assay: Commercial scale cultures: lysis, carotenoid content (UV), average growth rate (Example 5); conditions: for Maximum % Lysis of Culture: 0.007 mL/L every six hours
From the text: The findings from the flask test samples were then applied to commercial scale cultures of Haematococcus pluvialis (Strain 1) containing green swimmer cells that were transferred from open raceway pond bioreactor #2310 disposed in a greenhouse, using paddlewheel mixing, and operating in conditions: reactor volume of 55,000 L; Daily PAR of 42 mol m^−2 d^−1; pH of 7.5; and paddlewheel speed of 40%; to open raceway pond bioreactor #2420 disposed in a greenhouse, using paddlewheel mixing, operating in conditions: reactor volume of 140,000 L; Daily PAR of 40 mol m^−2 d^−1; pH of 7.3; and paddlewheel speed of 70%. Similarly, the culture in bioreactor #2320, operating in conditions: reactor volume of 60,000 L; Daily PAR of 42 mol m^−2 d^−1; pH of 7.5; and paddlewheel speed of 40%; was transferred by being split into pond bioreactors #2410 and 2430 operating in conditions: reactor volume of 150,000 L; Daily PAR of 40 mol m^−2 d^−1; pH of 7.3; and paddlewheel speed of 70%. […] Lysis was quantified upon harvest of the culture through visual observation of samples under a microscope. Carotenoid content of the cells was measured by UV method upon harvest, and the average growth rate of the culture was calculated based on periodic dry weight samples. The results were compared to data from previous culture runs in the same bioreactors or bioreactors with similar operating conditions during the same month (September 2014) at the same location.

[5] = system: Haematococcus pluvialis (Strain 2); assay: % lysis and culture dry weight in flasks (Example 11)
From the text: as §1

[6] = 0.0105 mL/L 1 time daily for 3 days, day 1
[7] = 0.0105 mL/L 1 time daily for 3 days, day 2
[8] = 0.0105 mL/L 1 time daily for 3 days, day 3
[9] = 0.0105 mL/L 1 time daily for 3 days, day 4
[10] = 0.0105 mL/L 1 time daily for 3 days, day 5
[11] = 0.0105 mL/L 1 time daily for 3 days, day 6
[12] = 0.0105 mL/L 1 time daily for 3 days, day 7
[13] = 0.0105 mL/L 1 time every other day, day 1
[14] = 0.0105 mL/L 1 time every other day, day 2
[15] = 0.0105 mL/L 1 time every other day, day 3
[16] = 0.0105 mL/L 1 time every other day, day 4
[17] = 0.0105 mL/L 1 time every other day, day 5
[18] = 0.0105 mL/L 1 time every other day, day 6
[19] = 0.0105 mL/L 1 time every other day, day 7
[20] = 0.0105 mL/L 1 time per day, day 1
[21] = 0.0105 mL/L 1 time per day, day 2
[22] = 0.0105 mL/L 1 time per day, day 3
[23] = 0.0105 mL/L 1 time per day, day 4
[24] = 0.0105 mL/L 1 time per day, day 5
[25] = 0.0105 mL/L 1 time per day, day 6
[26] = 0.0105 mL/L 1 time per day, day 7

`[Cl-].[Na+]` [NaCl, sodium chloride] was tested, and the “% Chytrid infection in Flasks” value (chytrids [1]; 2 ppt, 9 d) was 82 ± 17%, the “% Chytrid infection in Flasks” value (chytrids [1]; 2 ppt, 11 d) was 96 ± 4% and the “% Chytrid infection in Flasks” value (chytrids [1]; 4 ppt, 9 d) was 22 ± 20%. The “% Chytrid infection in Flasks” value (chytrids [1]; 4 ppt, 11 d) was 85 ± 16%, the “% Chytrid infection in Flasks” value (chytrids [1]; 5 ppt, 9 d) was 18 ± 16% and the “% Chytrid infection in Flasks” value (chytrids [1]; 5 ppt, 11 d) was 53 ± 9%. The “% Chytrid infection in Flasks” value (chytrids [1]; 6 ppt, 9 d) was 8 ± 11%, the “% Chytrid infection in Flasks” value (chytrids [1]; 6 ppt, 11 d) was 19 ± 27% and the “% Chytrid infection in Flasks” value (chytrids [1]; 7 ppt, 9 d) was 3 ± 5%. For the same molecule, the “% Chytrid infection in Flasks” value (chytrids [1]; 7 ppt, 11 d) was 0 ± 0%, the “% Chytrid infection in Flasks” value (chytrids [1]; 8 ppt, 9 d) was 1 ± 1% and the “% Chytrid infection in Flasks” value (chytrids [1]; 8 ppt, 11 d) was 2 ± 2%. For the same molecule, the “% Chytrid infection in Flasks” value (chytrids [1]; 9 ppt, 9 d) was 1 ± 1%, the “% Chytrid infection in Flasks” value (chytrids [1]; 9 ppt, 11 d) was 1 ± 1% and the “% Chytrid infection in Flasks” value (chytrids [1]; 10 ppt, 9 d) was 0 ± 0%. For the same molecule, the “% Chytrid infection in Flasks” value (chytrids [1]; 10 ppt, 11 d) was 0 ± 0%, the “% Chytrid infection in Flasks” value (chytrids [1]; 11 ppt, 9 d) was 0 ± 0% and the “% Chytrid infection in Flasks” value (chytrids [1]; 11 ppt, 11 d) was 17 ± 24%. For the same molecule, the chytrid infection (chytrids [1]; treatments between 7-10 ppt in flasks) was 5-10%.
For hydrogen peroxide [H2O2], the “% Chytrid infection” value (chytrids [2]; 0.0105 mL/L 3 times per day (discontinued day 5), day 6) was 2.5 ± 1.2%, the “% Chytrid infection” value (chytrids [2]; 0.0105 mL/L 3 times per day (discontinued day 5), day 9) was 7.5 ± 3.5% and the “% Chytrid infection” value (chytrids [2]; 0.0105 mL/L 3 times per day (discontinued day 5), day 11) was 100.0 ± 0.0%. For the same molecule, the “% Chytrid infection” value (chytrids [2]; 0.0105 mL/L 3 times per day, day 0) was 0.0 ± 0.0%, the “% Chytrid infection” value (chytrids [2]; 0.0105 mL/L 3 times per day, day 3) was 0.8 ± 1.2% and the “% Chytrid infection” value (chytrids [2]; 0.0105 mL/L 3 times per day, day 4) was 2.5 ± 3.5%. The “% Chytrid infection” value (chytrids [2]; 0.0105 mL/L 3 times per day, day 5) was 1.7 ± 0.0%, the “% Chytrid infection” value (chytrids [2]; 0.0140 mL/L 1 time per day (discontinued day 5), day 6) was 2.5 ± 1.2% and the “% Chytrid infection” value (chytrids [2]; 0.0140 mL/L 1 time per day (discontinued day 5), day 9) was 0.0 ± 0.0%. The “% Chytrid infection” value (chytrids [2]; 0.0140 mL/L 1 time per day (discontinued day 5), day 11) was 35.8 ± 29.5%, the “% Chytrid infection” value (chytrids [2]; 0.0140 mL/L 1 time per day, day 0) was 0.0 ± 0.0% and the “% Chytrid infection” value (chytrids [2]; 0.0140 mL/L 1 time per day, day 3) was 0.0 ± 0.0%. The “% Chytrid infection” value (chytrids [2]; 0.0140 mL/L 1 time per day, day 4) was 0.0 ± 0.0%, the “% Chytrid infection” value (chytrids [2]; 0.0140 mL/L 2 times per day (discontinued day 5), day 6) was 5.8 ± 3.5% and the “% Chytrid infection” value (chytrids [2]; 0.0140 mL/L 2 times per day (discontinued day 5), day 9) was 43.3 ± 4.7%. The “% Chytrid infection” value (chytrids [2]; 0.0140 mL/L 2 times per day (discontinued day 5), day 11) was 97.5 ± 3.5%, the “% Chytrid infection” value (chytrids [2]; 0.0140 mL/L 2 times per day, day 0) was 0.0 ± 0.0% and the “% Chytrid infection” value (chytrids [2]; 0.0140 mL/L 2 times per day, day 3) was 2.5 ± 1.2%. For the same molecule, the “% Chytrid infection” value (chytrids [2]; 0.0140 mL/L 2 times per day, day 4) was 2.5 ± 3.5%, the “% Chytrid infection” value (chytrids [2]; 0.0140 mL/L 2 times per day, day 5) was 5.0 ± 4.7% and the “% Chytrid infection” value (chytrids [2]; 0.0140 mL/L 3 times per day (discontinued day 5), day 6) was 0.0 ± 0.0%. For the same molecule, the “% Chytrid infection” value (chytrids [2]; 0.0140 mL/L 3 times per day (discontinued day 5), day 9) was 0.0 ± 0.0%, the “% Chytrid infection” value (chytrids [2]; 0.0140 mL/L 3 times per day (discontinued day 5), day 11) was 11.7 ± 16.5% and the “% Chytrid infection” value (chytrids [2]; 0.0140 mL/L 3 times per day, day 0) was 0.0 ± 0.0%. The “% Chytrid infection” value (chytrids [2]; 0.0140 mL/L 3 times per day, day 3) was 3.3 ± 4.7%, the “% Chytrid infection” value (chytrids [2]; 0.0140 mL/L 3 times per day, day 4) was 0.0 ± 0.0% and the “% Chytrid infection” value (chytrids [2]; 0.0140 mL/L 3 times per day, day 5) was 0.0 ± 0.0%. The “% Chytrid infection” value (chytrids [2]; 0.0175 mL/L 1 time per day (discontinued day 5), day 6) was 0.0 ± 0.0%, the “% Chytrid infection” value (chytrids [2]; 0.0175 mL/L 1 time per day (discontinued day 5), day 9) was 0.0 ± 0.0% and the “% Chytrid infection” value (chytrids [2]; 0.0175 mL/L 1 time per day (discontinued day 5), day 11) was 34.2 ± 27.1%. The “% Chytrid infection” value (chytrids [2]; 0.0175 mL/L 1 time per day, day 0) was 0.0 ± 0.0%, the “% Chytrid infection” value (chytrids [2]; 0.0175 mL/L 1 time per day, day 3) was 0.8 ± 1.2% and the “% Chytrid infection” value (chytrids [2]; 0.0175 mL/L 1 time per day, day 4) was 1.7 ± 0.0%. For the same molecule, the “% Chytrid infection” value (chytrids [2]; 0.0175 mL/L 1 time per day, day 5) was 1.7 ± 0.0%, the chytrid infection (chytrids [2]; all treated flasks, until 4-6 days after treatment ended) was “less than 10%” and the “% Chytrid infection” value (chytrids [3]; [6]) was 0.0 ± 0.0%. For the same molecule, the “% Chytrid infection” value (chytrids [3]; [7]) was 0.0 ± 0.0%, the “% Chytrid infection” value (chytrids [3]; [8]) was 0.0 ± 0.0% and the “% Chytrid infection” value (chytrids [3]; [9]) was 0.0 ± 0.0%. For the same molecule, the “% Chytrid infection” value (chytrids [3]; [10]) was 0.8 ± 1.2%, the “% Chytrid infection” value (chytrids [3]; [11]) was 0.0 ± 0.0% and the “% Chytrid infection” value (chytrids [3]; [12]) was 1.7 ± 2.4%. The “% Chytrid infection” value (chytrids [3]; [13]) was 0.0 ± 0.0%, the “% Chytrid infection” value (chytrids [3]; [14]) was 0.0 ± 0.0% and the “% Chytrid infection” value (chytrids [3]; [15]) was 2.5 ± 1.2%. The “% Chytrid infection” value (chytrids [3]; [16]) was 0.0 ± 0.0%, the “% Chytrid infection” value (chytrids [3]; [17]) was 0.8 ± 1.2% and the “% Chytrid infection” value (chytrids [3]; [18]) was 3.3 ± 0.0%. The “% Chytrid infection” value (chytrids [3]; [19]) was 0.8 ± 1.2%, the “% Chytrid infection” value (chytrids [3]; [20]) was 0.0 ± 0.0% and the “% Chytrid infection” value (chytrids [3]; [21]) was 0.0 ± 0.0%. For the same molecule, the “% Chytrid infection” value (chytrids [3]; [22]) was 0.0 ± 0.0%, the “% Chytrid infection” value (chytrids [3]; [23]) was 0.0 ± 0.0% and the “% Chytrid infection” value (chytrids [3]; [24]) was 2.5 ± 3.5%. For the same molecule, the “% Chytrid infection” value (chytrids [3]; [25]) was 0.0 ± 0.0%, the “% Chytrid infection” value (chytrids [3]; [26]) was 0.0 ± 0.0% and the chytrid infection (chytrids [3]; all treated flasks, 0.0105 mL/L) was “below 5%”. For the same molecule, the “Maximum % Lysis of Culture” value ([4]; Bioreactor 2410) was 70%, the “Maximum % Lysis of Culture” value ([4]; Bioreactor 2420) was 20% and the “Maximum % Lysis of Culture” value ([4]; Bioreactor 2430) was 35%. The “reduction of the level of cell lysis” value ([4]; at least 0.007 mL/L every 6 hours, flask tests and commercial scale cultures together) was “at least 60%”, the lysis ([4]; two of the commercial scale cultures treated with hydrogen peroxide) was 20-35% and the “% Lysis” value [5, 6] was 5.0 ± 5.0%. For the same molecule, the “% Lysis” value [5, 7] was 3.3 ± 0.0%, the “% Lysis” value [5, 8] was 7.5 ± 1.2% and the “% Lysis” value [5, 9] was 0.8 ± 1.2%. For the same molecule, the “% Lysis” value [5, 10] was 5.0 ± 0.0%, the “% Lysis” value [5, 11] was 4.2 ± 1.2% and the “% Lysis” value [5, 12] was 1.7 ± 2.4%. For the same molecule, the “% Lysis” value [5, 13] was 5.0 ± 5.0%, the “% Lysis” value [5, 14] was 3.3 ± 2.4% and the “% Lysis” value [5, 15] was 4.2 ± 1.2%. For the same molecule, the “% Lysis” value [5, 16] was 3.3 ± 0.0%, the “% Lysis” value [5, 17] was 3.3 ± 2.4% and the “% Lysis” value [5, 18] was 3.3 ± 2.4%. For the same molecule, the “% Lysis” value [5, 19] was 3.3 ± 0.0%, the “% Lysis” value [5, 20] was 5.0 ± 5.0% and the “% Lysis” value [5, 21] was 2.5 ± 1.2%. For the same molecule, the “% Lysis” value [5, 22] was 5.8 ± 3.5%, the “% Lysis” value [5, 23] was 4.2 ± 1.2% and the “% Lysis” value [5, 24] was 4.2 ± 3.5%. For the same molecule, the “% Lysis” value [5, 25] was 0.0 ± 0.0%, the “% Lysis” value [5, 26] was 2.4 ± 0.0% and the cell lysis ([5]; flasks across treatments, 0.0105 mL/L) was “below 10%”.
